Where a name gives a salt, the structure may show the parent alone.
Target: T1, human Y4 receptor (Homo sapiens, UniProt P50391)
T1 construct: expressed in transfected cells
Assay: NPY4 cAMP HTRF Agonist Assay (inhibitory cAMP assay, Gi activation by Y4 agonism)
Format: cell-based
Conditions: TABLE 2, R2 is Phenyl-CN; read-out: hY4 CAMP EC50
Description: NPY4 cAMP HTRF Agonist Assay
The functionality of the compound at Y4 receptor was analyzed using a inhibitory cAMP assay (CISBIO, HTRF cAMP kit #62AM4PEC) to measure the Gi activation by Y4 agonism.
The human Y4 stable CHO clonal cells were maintained in culture medium (F-12 containing 10% Fetal Bovine Serum, […] GENETICIN®, […] Zeocin). Before the experiment, 5 μL of 1 uM Forskolin (Sigma, # F6886) and 100 uM IBMX (Sigma, # I5879) in PBS buffer were added into 384-well plates (PE, Proxi-plate) that were pre-dotted with 100 nL compounds. The cells were removed from the flasks by Cellstripper, counted and adjusted to 1.0×10^6 cells/mL in PBS buffer, and added 5 μL/well (5000 cells/well) into the above 384-well plates. The cells were then covered and incubated for 30 minutes at room temperature. After incubation, 5 μL/well of D2-conjugate in HTRF lysis buffer was first added, followed by adding 5 μL/well of anti-cAMP Cryptate in HTRF lysis buffer. The plates were incubated for another 1 hour at room temperature and read on the EnVision Multilabel Plate Reader.
Compounds described herein were tested in the above assay.

T1 sequence (P50391 whole entry): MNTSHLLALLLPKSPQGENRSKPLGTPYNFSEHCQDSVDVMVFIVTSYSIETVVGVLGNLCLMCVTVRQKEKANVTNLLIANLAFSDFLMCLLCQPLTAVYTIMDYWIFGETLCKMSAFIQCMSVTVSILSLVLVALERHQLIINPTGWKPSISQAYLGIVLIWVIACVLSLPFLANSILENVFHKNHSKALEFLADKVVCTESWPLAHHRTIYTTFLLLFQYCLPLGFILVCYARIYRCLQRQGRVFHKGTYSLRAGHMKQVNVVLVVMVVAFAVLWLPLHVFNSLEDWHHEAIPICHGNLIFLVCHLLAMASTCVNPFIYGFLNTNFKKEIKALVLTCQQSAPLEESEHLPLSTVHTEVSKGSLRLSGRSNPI

Row | EC50 | Compound
1 | 0.299 µM | C=C(C)c1ccnc(N[C@@H]2CCCC[C@H]2N[C@H]2CCCN(c3ccc(C#N)cc3)C2)c1 [Example 234]
2 | 0.059 µM | CC(C)(C)c1cccc(-c2ccnc(N[C@@H]3CCCC[C@H]3N[C@H]3CCCN(c4ccc(C#N)cc4)C3)c2)c1 [Example 259]
3 | 0.223 µM | N#Cc1ccc(N2CCC[C@H](N[C@@H]3CCCC[C@H]3Nc3cc(-c4cc(C#N)cs4)ccn3)C2)cc1 [Example 269]
4 | 0.005 µM | N#Cc1ccc(N2C[C@@H]3C[C@H](N[C@@H]4CCCC[C@H]4Nc4ncc(-c5ccccc5F)o4)[C@H]2C3)cc1 [Example 223]
5 | 0.001 µM | CC(=O)Nc1cccc(-c2ccnc(N[C@@H]3CCCC[C@H]3N[C@H]3CCCN(c4ccc(C#N)cc4)C3)c2)c1 [Example 251]
6 | 0.077 µM | N#Cc1ccc(N2CCC[C@H](N[C@@H]3CCCC[C@H]3Nc3cc(-c4ccc5nccnc5c4)ccn3)C2)cc1 [Example 221]
7 | 0.003 µM | CS(=O)(=O)Nc1cccc(-c2ccnc(N[C@@H]3CCCC[C@H]3N[C@H]3CCCN(c4ccc(C#N)cc4)C3)c2)c1 [Example 242]
8 | 0.005 µM | COC(=O)Nc1cccc(-c2ccnc(N[C@@H]3CCCC[C@H]3N[C@H]3CCCN(c4ccc(C#N)cc4)C3)c2)c1 [Example 201]
9 | 0.037 µM | N#Cc1ccc(N2C[C@@H]3C[C@H](N[C@@H]4CCCC[C@H]4Nc4cc(-c5ccccc5)ccn4)[C@H]2C3)cc1 [Example 232]

Same assay, conditions: TABLE 3, R2 is Phenyl-NO2; read-out: hY4 CAMP EC50

Row | EC50 | Compound
10 | 0.001 µM | C[C@]1(N[C@@H]2CCCC[C@H]2Nc2ncc(-c3ccc(OC(F)(F)F)cc3)o2)CCCN(c2ccc([N+](=O)[O-])cc2)C1 [Example 287]

Same assay, conditions: TABLE 4, R2 is Pyridinyl-CN; read-out: hY4 CAMP EC50

Row | EC50 | Compound
11 | 0.01 µM | N#Cc1ccc(N2CCC[C@H](N[C@@H]3CCCCC3Nc3ncc(-c4ccc(OC(F)(F)F)cc4)o3)C2)cn1 (stereo partly shown) [Example 309]
12 | 0.007 µM | N#Cc1cc(N2CCC[C@H](N[C@@H]3CCCC[C@H]3Nc3ncc(-c4ccc(OC(F)(F)F)cc4)o3)C2)ccn1 [Example 307]
13 | 0.009 µM | N#Cc1cc(N2CCC[C@H](N[C@@H]3CCCC[C@H]3Nc3ncc(-c4ccccc4OC(F)(F)F)o3)C2)ccn1 [Example 311]

Same assay, conditions: TABLE 5, R2 is Pyridinyl-CF3; read-out: hY4 CAMP EC50

Row | EC50 | Compound
14 | 0.095 µM | CC(C)(C)OC(=O)Nc1cccc(-c2cnc(N[C@@H]3CCCC[C@H]3N[C@H]3CCCN(c4ccc(C(F)(F)F)nc4)C3)o2)c1 [Example 333]

Same assay, conditions: TABLE 7, R2 is Pyridinyl-oxadiazole-CH3; read-out: hY4 CAMP EC50

Row | EC50 | Compound
15 | 0.013 µM | Cc1nc(-c2ccc(N3CCC[C@](C)(N[C@@H]4CCCC[C@H]4Nc4ncc(-c5cccc(C(N)=O)c5)o4)C3)cn2)no1 [Example 389]

Same assay, conditions: human Y4 receptor, cAMP; read-out: hY4 CAMP EC50

Row | EC50 | Compound
16 | 0.222 µM | FC(F)(F)Oc1ccc(-c2cnc(N[C@@H]3CCCC[C@H]3N[C@H]3C[C@@H]4C[C@H]3N(c3ncc(C(F)(F)F)cn3)C4)o2)cc1 [Example 423]
17 | 0.002 µM | COC(=O)Nc1cccc(-c2ccnc(N[C@@H]3CCCC[C@H]3N[C@H]3CCCN(c4ccc(Br)cc4)C3)c2)c1 [Example 513]
18 | 0.048 µM | C[C@]1(N[C@H]2CCCC[C@@H]2Nc2cc(-c3cccc(C(N)=O)c3)ccn2)CCCN(c2cnc(C(F)(F)F)nc2)C1 [Example 418]
19 | 0.15 µM | Cn1nnc(-c2ccc(N3CCC[C@H](N[C@@H]4CCCC[C@H]4Nc4cc(-c5ccc(OC(F)F)cc5)ccn4)C3)cc2)n1 [Example 503]
20 | 0.333 µM | N#Cc1ccc(N2CCCC(N[C@@H]3CCCC[C@H]3Nc3ncc(-c4cccc(C(N)=O)c4)o3)C2)nn1 (stereo partly shown) [Example 479]
21 | 0.015 µM | NC(=O)c1cc(-c2cnc(N[C@@H]3CCCC[C@H]3N[C@H]3CCCN(c4cnc(C(F)(F)F)nc4)C3)o2)ccn1 [Example 425]
22 | 0.093 µM | Cc1nnc(-c2ccc(N3CCC[C@H](N[C@@H]4CCCC[C@H]4Nc4cc(-c5cccc(S(N)(=O)=O)c5)ccn4)C3)cc2)o1 [Example 377]
23 | 0.003 µM | Cc1nnc(-c2ccc(N3CCCC(N[C@@H]4CCCC[C@H]4Nc4cc(-c5ccc(O)cc5)ccn4)C3)cc2)o1 (stereo partly shown) [Example 370]
24 | 0.003 µM | Cc1nnc(-c2ccc(N3CCCC(N[C@@H]4CCCC[C@H]4Nc4cc(-c5ccc(F)cc5)ccn4)C3)cc2)o1 (stereo partly shown) [Example 364]
25 | 0.002 µM | Cc1noc(-c2ccc(N3CCC[C@H](N[C@@H]4CCCC[C@H]4Nc4cc(-c5cccc(C(N)=O)c5)ccn4)C3)cc2)n1 [Example 374]
26 | 0.001 µM | Cc1nc(-c2ccc(N3C[C@@H]4C[C@H](N[C@@H]5CCCC[C@H]5Nc5cc(-c6cccc(C(N)=O)c6)ccn5)[C@H]3C4)cc2)no1 [Example 353]
27 | 0.015 µM | NC(=O)c1cccc(-c2ccnc(N[C@@H]3CCCC[C@H]3N[C@H]3CCCN(c4ccc(-c5ncon5)cc4)C3)c2)c1 [Example 376]
28 | 0.142 µM | N#Cc1cnc(N2CCC[C@H](N[C@@H]3CCCC[C@H]3Nc3cc(-c4cccc(C(N)=O)c4)ccn3)C2)nc1 [Example 430]
29 | 0.004 µM | C[C@]1(N[C@@H]2CCCC[C@H]2Nc2ncc(-c3cccc(C(N)=O)c3)o2)CCCN(c2ncc(C(F)(F)F)cn2)C1 [Example 405]
30 | 0.756 µM | N#Cc1ncc(N2CCC[C@H](N[C@@H]3CCCC[C@H]3Nc3cc(-c4cc(F)c(F)cc4F)ccn3)C2)cn1 [Example 436]
31 | 0.01 µM | C[C@]1(N[C@@H]2CCCC[C@H]2Nc2cc(-c3cccc(C(N)=O)c3)ccn2)CCCN(c2ccc(-c3noc(C4CC4)n3)nc2)C1 [Example 450]

Same assay, conditions: human Y4 stable CHO clonal cells, forskolin + IBMX; read-out: NPY4 cAMP HTRF Agonist Assay EC50

Row | EC50 | Compound
32 | 0.042 µM | N#Cc1ccc(N2CCC[C@H](N[C@@H]3CCCC[C@H]3Nc3ncc(-c4cccc(F)c4)o3)C2)cc1 [Example 35, 4-((S)-3-((1R,2R)-2-(5-(3-Fluorophenyl)oxazol-2-ylamino)cyclohexylamino)piperidin-1-yl)benzonitrile]
33 | 0.002 µM | N#Cc1ccc(N2CCC[C@H](N[C@@H]3CCCC[C@H]3Nc3ncc(-c4ccc(OC(F)(F)F)cc4)o3)C2)cc1F [Example 49, 2-Fluoro-4-((S)-3-((1R,2R)-2-(5-(4-(trifluoromethoxy)phenyl)oxazol-2-ylamino)cyclohexylamino)piperidin-1-yl)benzonitrile bis-trifluoroacetate]
34 | 0.59 µM | O=C(Nc1nncs1)c1ccnc(N[C@@H]2CCCC[C@H]2N[C@H]2CCCN(c3ccc(C(F)(F)F)cc3)C2)c1 [Example 112]
35 | 0.033 µM | FC(F)(F)Oc1ccc(-c2cnc(N[C@@H]3CCCC[C@H]3N[C@H]3CCCN(c4ccc(I)cc4)C3)o2)cc1 [Example 93, (1R,2R)—N1-((S)-1-(4-Iodophenyl)piperidin-3-yl)-N2-(5-(4-(trifluoromethoxy)phenyl)oxazol-2-yl)cyclohexane-1,2-diamine bis-trifluoroacetate]
36 | 0.262 µM | N#Cc1ccc(N2CCC[C@H](N[C@@H]3CCCC[C@H]3Nc3cc(-c4cccc(F)c4)ccn3)C2)cc1 [Example 36, 4-((S)-3-((1R,2R)-2-(4-(3-Fluorophenyl)pyridin-2-ylamino)cyclohexylamino)piperidin-1-yl)benzonitrile tris-trifluoroacetate]
37 | 0.21 µM | FC(F)(F)Oc1ccc(-c2cnc(N[C@@H]3CCCC[C@H]3N[C@H]3CCCN(c4ccc(C(F)(F)F)cn4)C3)o2)cc1 [Example 94, (1R,2R)—N1-(5-(4-(Trifluoromethoxy)phenyl)oxazol-2-yl)-N2-((S)-1-(5-(trifluoromethyl)pyridin-2-yl)piperidin-3-yl)cyclohexane-1,2-diamine]
38 | 0.272 µM | N#Cc1ccc(N2CCC[C@H](N[C@@H]3CCCC[C@H]3Nc3nnc(-c4ccccc4)o3)C2)cc1 [Example 54, 4-((S)-3-((1R,2R)-2-(5-Phenyl-1,3,4-oxadiazol-2-ylamino)cyclohexylamino)piperidin-1-yl)benzonitrile trifluoroacetate]
39 | 0.322 µM | N#Cc1ccc(N2CCC[C@H](N[C@@H]3CCCC[C@H]3Nc3cc(-c4cc[nH]n4)ccn3)C2)cc1 [Example 33, 4-((S)-3-((1R,2R)-2-(4-(1H-Pyrazol-3-yl)pyridin-2-ylamino)cyclohexylamino)piperidin-1-yl)benzonitrile tris-trifluoroacetate]
40 | 0.083 µM | FC(F)(F)c1cnc(N2CCC[C@H](N[C@@H]3CCCC[C@H]3Nc3ncc(-c4ccccc4)o3)C2)nc1 [Example 79, (1R,2R)—N1-(5-Phenyloxazol-2-yl)-N2-((S)-1-(5-(trifluoromethyl)pyrimidin-2-yl)piperidin-3-yl)cyclohexane-1,2-diamine bis-trifluoroacetate]

Same assay, conditions: second TABLE 1, R2 is Phenyl-CF3; read-out: hY4 CAMP EC50

Row | EC50 | Compound
41 | 0.92 µM | COC(=O)N(C)c1cccc(-c2ccnc(N[C@@H]3CCCC[C@H]3N[C@H]3CCCN(c4ccc(C(F)(F)F)cc4)C3)c2)c1 [Example 173]
42 | 0.319 µM | FC(F)(F)c1ccc(N2CCC[C@H](N[C@@H]3CCCC[C@H]3Nc3ncc(-c4cccc(-c5nnn[nH]5)c4)o3)C2)cc1 [Example 122]
43 | 0.548 µM | N#Cc1cccc(-c2cnc(N[C@@H]3CCCC[C@H]3N[C@H]3CCCN(c4ccc(C(F)(F)F)cc4)C3)o2)c1 [Example 160]
44 | 0.508 µM | OCCc1ccc(-c2ccnc(N[C@@H]3CCCC[C@H]3N[C@H]3CCCN(c4ccc(C(F)(F)F)cc4)C3)c2)cc1 [Example 152]
45 | 0.03 µM | OCCc1cccc(-c2ccnc(N[C@@H]3CCCC[C@H]3N[C@H]3CCCN(c4ccc(C(F)(F)F)cc4)C3)c2)c1 [Example 149]
46 | 0.07 µM | N#Cc1cnc(N[C@@H]2CCCC[C@H]2N[C@H]2CCCN(c3ccc(C(F)(F)F)cc3)C2)s1 [Example 193]
